Drawing on patent publication US7297818B2, “Adamantane derivatives” (AstraZeneca AB, priority 1999, dated 2007), this text covers melting point for 1 compound.

Structures can show the parent of a compound that is named as a salt.

Usually melting point stands for the temperature, or range, at which the solid turns liquid. Turning to `COCCNCCCc1ccc(Cl)c(C(=O)NCC23CC4CC(CC(C4)C2)C3)c1` (as salt: hydrochloride) [Example 22, 2-Chloro-5-[3-[(2-methoxyethyl)amino]propyl]-N-(tricyclo[3.3.1.1^3,7]dec-1-ylmethyl)-benzamide, hydrochloride salt], the melting point fell in the range of 245 to 248 °C.
